In patent US20100040568A1, “Steroidal compounds as melanogenesis modifiers and uses thereof” (SkinMedica, Inc., priority 2008, published 2010):

Tested on: African-American skin equivalent (MEL-B)
Assay: MelanoDerm pigmentation assay, African-American skin equivalent
Type: cell-based, human
Procedure: MelanoDerm™, made by MatTek Corp., is a viable reconstituted three-dimensional human skin equivalent containing normal melanocytes and keratinocytes that are derived from African-American (MEL-B), Asian (MEL-A) or Caucasian (MEL-C) donors. Both MEL-A and MEL-B tissues were used in the current study, and they were maintained in the NMM-113 medium as recommended by the manufacturer.
Conessine (from Sigma) was dissolved in 30% ethanol: 70% propylene glycol to a final concentration of 1.0 mM (equal to 356.6 μg/ml), and this was maintained constant and used on all samples tested. A 25 μl of its aliquot was applied topically to the MelanoDerm™ tissue (MEL-B) on Days 0, 1, 3, 6, 8 and 10. The MelanoDerm™ tissues were fed every other day with 5 ml fresh NMM-113. Prior to each application, the tissues were washed with 1 ml PBS to remove any residual test compound. Tissues were fixed on Days 10 and 13 for microscopic analysis and histological evaluation. In addition, duplicate tissues were frozen on Days 10 and 13 for the melanin assay.
The experiments were repeated twice on both MEL-A and MEL-B tissues from different lots to make sure that the results are reproducible (study 1 or 2). For each experiment, six tissues were treated with conessine, and six were treated with […] (30% ethanol: 70% PEG) or arbutin if applicable. For MEL-B, on day 10, three tissues under each treatment condition were taken out, and one was used for histological studies and the other two were used for the melanin assay. The same protocol was followed with the MEL-B samples after 13 days' treatment and MEL-A after either 13 or 16 days' treatments.
Procedure 1: the effects of conessine on melanin synthesis in MEL-A or B were evaluated by light microscopy (views from the top surface of the tissue). Procedure 2: the distribution of melanin in the treated-MEL-A or B was accessed by image analysis using Fontana-Masson stained histological sections (views from the side of the tissue).
MelanoDerm™, made by MatTek Corp., is a viable reconstituted three-dimensional human skin equivalent containing normal melanocytes and keratinocytes that are derived from African-American (MEL-B), Asian (MEL-A) or Caucasian (MEL-C) donors. It has human skin-like structure and undergoes progressive tissue darkening over the course of 2-3 weeks. MelanoDerm™ provides a useful in vitro means for evaluation of agents that modulate pigmentation. Human skin equivalent models such as MelanoDerm™ provide an alternative to clinical and animal testing for evaluating the effects of putative bioactive compounds on mammalian pigmentation. MelanoDerm™ is considered a more physiologically relevant model than melanocytes alone or melanocyte-keratinocyte co-cultures. Both MEL-A and MEL-B tissues were used in the current study, and they were maintained in the NMM-113 medium as recommended by the manufacturer. In this model, substantial accumulation of newly synthesized melanin occurs over a two to three week period.
Conessine and Licorice extract were dissolved in 30% ethanol: 70% propylene glycol (PEG) to a final concentration of 0.036% (0.36 mg/ml). A 25 μl aliquot of each compound was applied topically to the Asian MelanoDerm™ tissue (MEL-A) on Days 0, 1, 3, 6, 8, 10 and 13. The MelanoDerm™ tissues were fed every other day with 5 ml fresh NMM-113. Prior to each application, the tissues were washed with 1 ml PBS to remove any residual test compound. Tissues were fixed on Days 13 and 16 for microscopic analysis and histological evaluation. In addition, duplicate tissues were frozen on Days 13 and 16 for melanin assay. 30% ethanol: 70% PEG was used as negative control. Cell viability was measured in accordance with the manufacturer's instructions using the MTT assay kit (MatTek Corp., Ashland, Mass. 01721). One MEL-A tissue from each condition was harvested on day 2 and 7, and MTT assay was performed. Similar experiments were performed on MEL-B.

## CC1C2CCC3C4CC=C5CC(N(C)C)CCC5(C)C4CCC32CN1C (stereo not shown) [Compound 1, Conessine]
1.0 mM topical, days 10 and 13, compared with control-treated
  decrease of melanin content (Fontana-Masson staining, image analysis): 50-60%
0.036% topical
  colour by light microscopy: considerable decrease in the color of MEL-B
0.036% topical, 10 or 13 days
  decrease of melanin content (quantitative melanin assay): about 30%
0.036% topical, day 10, 8 sections
  melanin content compared to the vehicle-treated tissues (Fontana-Masson sections, quantitative analysis): 73.61%
0.036% topical, day 13, 8 sections
  melanin content compared to the vehicle-treated tissues (Fontana-Masson sections, quantitative analysis): 62.43%
Arbutin 3 mg/ml, conessine and licorice 0.36 mg/ml, extract 1:50
  effectiveness as depigmenting agent (comparison): more effective than either Licorice extract or arbutin
Conessine 0.36 mg/ml, extract diluted 1:50, 25 μl topical, days 10 and 13
  melanin content by Fontana-Masson staining: decreases significantly
